In patent publication US20260285850A1, “SUBSTITUTED OXAZOLIDINONES AND IMIDAZOLINONES AS HERBICIDES” (FMC CORPORATION, priority 2023, published 2026):

What was measured:
Type in all cases: in vivo
rice (Oryza sativa) = assay: Test B flooded paddy test, visual plant response rating 0-100; conditions: 250 g ai/ha, Flood, applied to paddy water, evaluated after 13 days
Summary of the method: (§1)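 In this flooded assay, 2-leaf seedlings received compound through the water layer, kept at 3 cm over the soil. Plants were held 13 days in a greenhouse and then visually compared with control pots.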

[1] = system: sedge, umbrella (small-flower umbrella sedge, Cyperus difformis); assay: as above; conditions: 250 g ai/ha, Flood, applied to paddy water, evaluated after 13 days
Summary of the method: as §1

[2] = system: ducksalad (Heteranthera limosa); assay: as above; conditions: 250 g ai/ha, Flood, applied to paddy water, evaluated after 13 days
Summary of the method: as §1

[3] = system: barnyardgrass (Echinochloa crusgalli); assay: as above; conditions: 250 g ai/ha, Flood, applied to paddy water, evaluated after 13 days
Summary of the method: as §1

[4] = system: blackgrass (Alopecurus myosuroides); assay: Test A postemergence application, visual injury rating 0-100
From the text: (§2) Seeds of plant species selected from barnyardgrass (Echinochloa crus-galli), blackgrass (Alopecurus myosuroides), corn (Zea mays), foxtail, giant (giant foxtail, Setaria faberi), green foxtail (Setaria viridis), goosegrass (Eleusine indica), kochia (Bassia scoparia), oat, wild (wild oat, Avena fatua), palmer (palmer amaranth, palmer pigweed, Amaranthus palmeri), ragweed (common ragweed, Ambrosia artemisiifolia), ryegrass, Italian (italian ryegrass, Lolium multiflorum), soybean (Glycine max) and wheat (Triticum aestivum) were planted into a blend of loam soil and sand and treated preemergence with a directed soil spray using test chemicals formulated in a non-phytotoxic solvent mixture which included a surfactant.
(§3) At the same time, plants selected from these crops and weed species and also galium (catchweed bedstraw, Galium aparine) and horseweed (Erigeron canadensis) were planted in pots containing the same blend of loam soil and sand and treated with postemergence applications of test chemicals formulated in the same manner. Plants ranged in height from 2 to 10 cm and were in the one- to two-leaf stage for the postemergence treatment. Treated plants and untreated controls were maintained in a greenhouse for 10 days, after which time all treated plants were compared to untreated controls and visually evaluated for injury. Plant response ratings, summarized in Table A, are based on a 0 to 100 scale where 0 is no effect and 100 is complete control. A dash (-) response means no test result.

soybean (Glycine max) [5] = assay: as above
From the text: as §2, §3

[6] = system: green foxtail (Setaria viridis); assay: as above
From the text: as §2, §3

[7] = system: ryegrass, Italian (italian ryegrass, Lolium multiflorum); assay: as above
From the text: as §2, §3

[8] = system: horseweed (Erigeron canadensis); assay: as above
From the text: as §2, §3

[9] = system: oat, wild (wild oat, Avena fatua); assay: as above
From the text: as §2, §3

[10] = system: barnyardgrass (Echinochloa crus-galli); assay: as above
From the text: as §2, §3

[11] = system: palmer (palmer amaranth, palmer pigweed, Amaranthus palmeri); assay: as above
From the text: as §2, §3

corn (Zea mays) [12] = assay: as above
From the text: as §2, §3

[13] = system: wheat (Triticum aestivum); assay: as above
From the text: as §2, §3

[14] = system: ragweed (common ragweed, Ambrosia artemisiifolia); assay: as above
From the text: as §2, §3

kochia (Bassia scoparia) [15] = assay: as above
From the text: as §2, §3

[16] = system: blackgrass (Alopecurus myosuroides); assay: Test A preemergence soil spray, visual injury rating 0-100; conditions: 10 days
Summary of the method: (§4)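 Loam-sand pots got test material in surfactant-containing solvent, either as a directed soil spray before emergence or on plants at the one- to two-leaf stage. Visual injury (0-100) was read after ten greenhouse days.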

soybean (Glycine max) [17] = assay: as above; conditions: 10 days
Summary of the method: as §4

[18] = system: green foxtail (Setaria viridis); assay: as above; conditions: 10 days
Summary of the method: as §4

[19] = system: ryegrass, Italian (italian ryegrass, Lolium multiflorum); assay: as above; conditions: 10 days
Summary of the method: as §4

[20] = system: oat, wild (wild oat, Avena fatua); assay: as above; conditions: 10 days
Summary of the method: as §4

[21] = system: barnyardgrass (Echinochloa crus-galli); assay: as above; conditions: 10 days
Summary of the method: as §4

[22] = system: palmer (palmer amaranth, palmer pigweed, Amaranthus palmeri); assay: as above; conditions: 10 days
Summary of the method: as §4

corn (Zea mays) [23] = assay: as above; conditions: 10 days
Summary of the method: as §4

[24] = system: wheat (Triticum aestivum); assay: as above; conditions: 10 days
Summary of the method: as §4

[25] = system: ragweed (common ragweed, Ambrosia artemisiifolia); assay: as above; conditions: 10 days
Summary of the method: as §4

kochia (Bassia scoparia) [26] = assay: as above; conditions: 10 days
Summary of the method: as §4

[27] = 62 g ai/ha, postemergence, 10 days, 0 = no effect, 100 = complete control
[28] = Postemergence, 16 g ai/ha, greenhouse 10 days, 0 no effect, 100 complete control
[29] = 62 g ai/ha, 0 = no effect, 100 = complete control

SMILES: COC(=O)COC(=O)C1=CCC(NC(=O)C2(C)CN(c3cc(Cl)cc(Cl)c3)C(=O)O2)C1 (centres unmarked) [Compound 110]
- Plant response rating, Rice (0 to 100 scale, 0 is no effect and 100 is complete control) (rice (Oryza sativa)): 40
- Plant response rating, Sedge, Umbrella (0 to 100 scale, 0 is no effect and 100 is complete control) [1]: 98
- Plant response rating, Ducksalad (0 to 100 scale, 0 is no effect and 100 is complete control) [2]: 95
- Plant response rating, Barnyardgrass (0 to 100 scale, 0 is no effect and 100 is complete control) [3]: 60
- Blackgrass plant response rating (0-100) [4, 27]: 100
- Blackgrass plant response rating (0 to 100 scale) [4, 28]: 80
- Soybean plant response rating (0-100) (soybean (Glycine max) [5]; [27]): 70
- Soybean plant response rating (0 to 100 scale) (soybean (Glycine max) [5]; [28]): 30
- Foxtail, Green plant response rating (0-100) [6, 27]: 90
- Foxtail, Green plant response rating (0 to 100 scale) [6, 28]: 90
- Ryegrass, Italian plant response rating (0-100) [7, 27]: 70
- Ryegrass, Italian plant response rating (0 to 100 scale) [7, 28]: 50
- Horseweed plant response rating (0-100) [8, 27]: 80
- Horseweed plant response rating (0 to 100 scale) [8, 28]: 70
- Oat, Wild plant response rating (0-100) [9, 27]: 30
- Oat, Wild plant response rating (0 to 100 scale) [9, 28]: 20
- Barnyardgrass plant response rating (0-100) [10, 27]: 100
- Barnyardgrass plant response rating (0 to 100 scale) [10, 28]: 90
- Pigweed, Palmer plant response rating (0-100) [11, 27]: 100
- Pigweed, Palmer plant response rating (0 to 100 scale) [11, 28]: 90
- Corn plant response rating (0-100) (corn (Zea mays) [12]; [27]): 100
- Corn plant response rating (0 to 100 scale) (corn (Zea mays) [12]; [28]): 100
- Wheat plant response rating (0-100) [13, 27]: 90
- Wheat plant response rating (0 to 100 scale) [13, 28]: 50
- Ragweed plant response rating (0-100) [14, 27]: 80
- Ragweed plant response rating (0 to 100 scale) [14, 28]: 50
- Kochia plant response rating (0-100) (kochia (Bassia scoparia) [15]; [27]): 90
- Kochia plant response rating (0 to 100 scale) (kochia (Bassia scoparia) [15]; [28]): 90
- Blackgrass plant response rating ([16]; 16 g ai/ha, 0 to 100 scale): 0
- Blackgrass plant response rating (0-100) [16, 29]: 30
- Soybean plant response rating (soybean (Glycine max) [17]; 16 g ai/ha, 0 to 100 scale): 10
- Soybean plant response rating (0-100) (soybean (Glycine max) [17]; [29]): 0
- Foxtail, Green plant response rating ([18]; 16 g ai/ha, 0 to 100 scale): 0
- Foxtail, Green plant response rating (0-100) [18, 29]: 90
- Ryegrass, Italian plant response rating ([19]; 16 g ai/ha, 0 to 100 scale): 0
- Ryegrass, Italian plant response rating (0-100) [19, 29]: 60
- Oat, Wild plant response rating ([20]; 16 g ai/ha, 0 to 100 scale): 0
- Oat, Wild plant response rating (0-100) [20, 29]: 0
- Barnyardgrass plant response rating ([21]; 16 g ai/ha, 0 to 100 scale): 50
- Barnyardgrass plant response rating (0-100) [21, 29]: 100
- Pigweed, Palmer plant response rating ([22]; 16 g ai/ha, 0 to 100 scale): 80
- Pigweed, Palmer plant response rating (0-100) [22, 29]: 100
- Corn plant response rating (corn (Zea mays) [23]; 16 g ai/ha, 0 to 100 scale): 0
- Corn plant response rating (0-100) (corn (Zea mays) [23]; [29]): 30
- Wheat plant response rating ([24]; 16 g ai/ha, 0 to 100 scale): 40
- Wheat plant response rating (0-100) [24, 29]: 80
- Ragweed plant response rating ([25]; 16 g ai/ha, 0 to 100 scale): 0
- Ragweed plant response rating (0-100) [25, 29]: 0
- Kochia plant response rating (kochia (Bassia scoparia) [26]; 16 g ai/ha, 0 to 100 scale): 0
- Kochia plant response rating (0-100) (kochia (Bassia scoparia) [26]; [29]): 0
